Assay results from US5284853A, “Angiotensin II receptor blocking 2,3,6 substituted quinazolinones” (American Cyanamid Company, priority 1993, dated 1994).
Several values for one entry are separate records, joined by “and”; a condition that tells them apart may be missing. Equal values may be shown once.

System: Angiotensin II (AII) vasopressor response
Test: AII Challenge: antagonism of the angiotensin II vasopressor response in conscious SHR
Format: in vivo, Spontaneously hypertensive rats (Male okamoto-Aoki SHR)
Conditions: for Average Change / Inhibition: n = 2; for Change / Control Before AII / Response After AII: per rat
[1] = 5 mg/kg I.V., AII 0.05 mcg/kg IV, 30 min post dose
[2] = 5 mg/kg I.V., AII 0.05 mcg/kg IV, 60 min post dose
[3] = 5 mg/kg I.V., AII 0.05 mcg/kg IV, 90 min post dose
[4] = 5 mg/kg I.V., AII 0.05 mcg/kg IV, 120 min post dose
[5] = 5 mg/kg I.V., AII 0.05 mcg/kg IV, 180 min post dose
[6] = 5 mg/kg I.V., AII 0.1 mcg/kg IV, 30 min post dose
[7] = 5 mg/kg I.V., AII 0.1 mcg/kg IV, 60 min post dose
[8] = 5 mg/kg I.V., AII 0.1 mcg/kg IV, 90 min post dose
[9] = 5 mg/kg I.V., AII 0.1 mcg/kg IV, 120 min post dose
[10] = 5 mg/kg I.V., AII 0.1 mcg/kg IV, 180 min post dose
[11] = 15 mg/kg I.V., AII 0.05 mcg/kg IV, 30 min post dose
[12] = 15 mg/kg I.V., AII 0.05 mcg/kg IV, 60 min post dose
[13] = 15 mg/kg I.V., AII 0.05 mcg/kg IV, 90 min post dose
[14] = 15 mg/kg I.V., AII 0.05 mcg/kg IV, 120 min post dose
[15] = 15 mg/kg I.V., AII 0.05 mcg/kg IV, 180 min post dose
[16] = 15 mg/kg I.V., AII 0.1 mcg/kg IV, 30 min post dose
[17] = 15 mg/kg I.V., AII 0.1 mcg/kg IV, 60 min post dose
[18] = 15 mg/kg I.V., AII 0.1 mcg/kg IV, 90 min post dose
[19] = 15 mg/kg I.V., AII 0.1 mcg/kg IV, 120 min post dose
[20] = 15 mg/kg I.V., AII 0.1 mcg/kg IV, 180 min post dose

Compound: CCCCc1nc2ccc(C3CC(c4ccc(C)o4)=NO3)cc2c(=O)n1Cc1ccc(-c2ccccc2-c2nnn[nH]2)cc1 (stereo not shown) [Example 19]
- Average Change [1]: 15.5 mmhg
- Inhibition [1]: 72%
- Change [1]: 11 mmhg and 20 mmhg
- Control Before AII [1]: 165 mmhg and 200 mmhg
- Response After AII [1]: 176 mmhg and 180 mmhg
- Average Change [2]: 15 mmhg
- Inhibition [2]: 73%
- Change [2]: 20 mmhg and 10 mmhg
- Control Before AII [2]: 160 mmhg and 195 mmhg
- Response After AII [2]: 180 mmhg and 205 mmhg
- Average Change [3]: 20 mmhg
- Inhibition [3]: 64%
- Change [3]: 25 mmhg and 15 mmhg
- Control Before AII [3]: 155 mmhg and 190 mmhg
- Response After AII [3]: 180 mmhg and 205 mmhg
- Average Change [4]: 25 mmhg
- Inhibition [4]: 55%
- Change [4]: 35 mmhg and 15 mmhg
- Control Before AII [4]: 150 mmhg and 175 mmhg
- Response After AII [4]: 185 mmhg and 190 mmhg
- Average Change [5]: 25 mmhg
- Inhibition [5]: 55%
- Change [5]: 33 mmhg and 17 mmhg
- Control Before AII [5]: 165 mmhg and 185 mmhg
- Response After AII [5]: 198 mmhg and 202 mmhg
- Average Change [6]: 17.5 mmhg
- Inhibition [6]: 83%
- Change [6]: 20 mmhg and 15 mmhg
- Control Before AII [6]: 160 mmhg and 205 mmhg
- Response After AII [6]: 180 mmhg and 220 mmhg
- Average Change [7]: 21 mmhg
- Inhibition [7]: 68%
- Change [7]: 25 mmhg and 17 mmhg
- Control Before AII [7]: 160 mmhg and 193 mmhg
- Response After AII [7]: 185 mmhg and 210 mmhg
- Average Change [8]: 24 mmhg
- Inhibition [8]: 63%
- Change [8]: 25 mmhg and 23 mmhg
- Control Before AII [8]: 175 mmhg and 187 mmhg
- Response After AII [8]: 200 mmhg and 210 mmhg
- Average Change [9]: 22.5 mmhg
- Inhibition [9]: 65%
- Change [9]: 20 mmhg and 25 mmhg
- Control Before AII [9]: 165 mmhg and 175 mmhg
- Response After AII [9]: 185 mmhg and 200 mmhg
- Average Change [10]: 27.5 mmhg
- Inhibition [10]: 58%
- Change [10]: 25 mmhg and 30 mmhg
- Control Before AII [10]: 170 mmhg and 185 mmhg
- Response After AII [10]: 195 mmhg and 215 mmhg
- Average Change [11]: 5 mmhg
- Inhibition [11]: 83%
- Change [11]: 0 mmhg and 10 mmhg
- Control Before AII [11]: 165 mmhg and 150 mmhg
- Response After AII [11]: 165 mmhg and 160 mmhg
- Average Change [12]: 10 mmhg
- Inhibition [12]: 67%
- Change [12]: 10 mmhg
- Control Before AII [12]: 155 mmhg and 150 mmhg
- Response After AII [12]: 165 mmhg and 160 mmhg
- Average Change [13]: 5 mmhg
- Inhibition [13]: 83%
- Change [13]: 5 mmhg
- Control Before AII [13]: 155 mmhg and 150 mmhg
- Response After AII [13]: 160 mmhg and 155 mmhg
- Average Change [14]: 7.5 mmhg
- Inhibition [14]: 75%
- Change [14]: 5 mmhg and 10 mmhg
- Control Before AII [14]: 150 mmhg
- Response After AII [14]: 155 mmhg and 160 mmhg
- Average Change [15]: 7.5 mmhg
- Inhibition [15]: 75%
- Change [15]: 0 mmhg and 15 mmhg
- Control Before AII [15]: 160 mmhg and 140 mmhg
- Response After AII [15]: 160 mmhg and 155 mmhg
- Average Change [16]: 5 mmhg
- Inhibition [16]: 89%
- Change [16]: 0 mmhg and 10 mmhg
- Control Before AII [16]: 165 mmhg and 160 mmhg
- Response After AII [16]: 165 mmhg and 170 mmhg
- Average Change [17]: 5 mmhg
- Inhibition [17]: 89%
- Change [17]: 0 mmhg and 10 mmhg
- Control Before AII [17]: 165 mmhg and 160 mmhg
- Response After AII [17]: 165 mmhg and 170 mmhg
- Average Change [18]: 7.5 mmhg
- Inhibition [18]: 83%
- Change [18]: 10 mmhg and 5 mmhg
- Control Before AII [18]: 155 mmhg and 150 mmhg
- Response After AII [18]: 165 mmhg and 155 mmhg
- Average Change [19]: 7.5 mmhg
- Inhibition [19]: 83%
- Change [19]: 10 mmhg and 5 mmhg
- Control Before AII [19]: 155 mmhg
- Response After AII [19]: 165 mmhg and 160 mmhg
- Average Change [20]: 10 mmhg
- Inhibition [20]: 78%
- Change [20]: 0 mmhg and 20 mmhg
- Control Before AII [20]: 170 mmhg and 150 mmhg
- Response After AII [20]: 170 mmhg
